Consider 7 molecules from patent US4804684A, “Symmetrical O-substituted dioximes of benzo-fused β-diketocyclo-alkylenes, the processes for their preparation and their application as drugs” (Panmedica S.A., priority 1986, dated 1989).

Each structure is given as a SMILES string. Where a name gives a salt, the structure may show the parent alone.

The test system of assay [1] is platelet-rich human plasma; platelet aggregation induced by ADP. The assay is described as follows: Platelet aggregation (platelet-rich human plasma) induced in vitro by ADP. The note with it: platelet-rich human plasma, 300,000 platelets/cm^2, 2.0 μg/ml of ADP; read-out: IC50, inductor: ADP. It is filed as cell-based. As to the method: (§1) Study of the Effects on the Platelet Aggregation (Platelet-Rich Human Plasma) Induced in Vitro By: ADP, Collagen or Arachidonic Acid Blood samples from volunteer donors are treated and adjusted to a platelet concentration of 300,000/cm^2 and then incubated with different concentrations of the test products. Aggregation is induced by 2.0 μg/ml of ADP or by 10.0 μg/ml of collagen. The measurements are made using a Bryston-type aggregometer--or CHRONOLOG. The changes in optical density are noted and the values of the concentrations which cause a 50% inhibition are calculated.

Assay [2] deals with platelet-rich human plasma; platelet aggregation induced by collagen. The assay is described as follows: Platelet aggregation (platelet-rich human plasma) induced in vitro by collagen. The class given is cell-based. The note with it: platelet-rich human plasma, 300,000 platelets/cm^2, 10.0 μg/ml of collagen; read-out: IC50, inductor: collagen. How it is done:
as §1

The test system of assay [3] is isolated guinea-pig intestine. The assay is described as follows: Antagonistic effects on isolated guinea-pig intestine (MAGNUS). To be noted: 0.1 μg/ml.
A further assay has as its system platelet aggregation. As to the kind of experiment: In vitro inhibition of platelet aggregation (BORN's method), induced by collagen or ADP. It is filed as cell-based, animal and human. To be noted: 100 μg/ml, aspirin as reference. As to the method:
In vitro inhibition of platelet aggregation The inhibition of platelet aggregation is measured in vitro by BORN's method (Nature 4832, 927 (1962)), the aggregation being induced by collagen or ADP. […] The aggregation can also be induced in vitro by serotonin, arachidonic acid and norepinephrine. Furthermore, this inhibitory effect was observed on platelet-rich plasma (PRP) of animal origin and human origin.

What is called IC50 is the concentration needed to halve the response being measured.

As to `Cl.Cl.NCCON=C1CC(=NOCCN)c2ccccc2-c2ccccc21` [Example 18, 5,7-Bis(2-Aminoethoxyimino)-6,7-Dihydro-(5H)-Dibenzo[a,c]Cycloheptene Dihydrochloride], the IC50 turned out to be 40 µg/mL in assay [1] and 50 µg/mL in assay [2]. For the same molecule, the “inhibitory effect on isolated guinea-pig intestine” value (from here on “inhibitory effect”) in assay [3] is reported as “still substantial”. In addition, the “inhibition of platelet aggregation compared with aspirin” value (“inhibition … compared with aspirin” below) with platelet aggregation is recorded as “comparable or even superior to aspirin”.

As to `Cl.Cl.NCCCON=C1CC(=NOCCCN)c2ccccc2-c2ccccc21` [Example 19, 5,7-Bis(3-Aminopropoxyimino)-6,7-Dihydro-(5H)-Dibenzo[a,c]Cycloheptene Dihydrochloride], the IC50 in assay [1] came out at 100 µg/mL; in assay [2] it was 175 µg/mL. Moreover, the “inhibitory effect” value in assay [3] is “still substantial”. In addition, the “inhibition … compared with aspirin” value in the assay with platelet aggregation is “comparable or even superior to aspirin”.

As to `CCN(CC)CCON=C1CC(=NOCCN(CC)CC)c2ccccc21` [Example 22, 1,3-Bis(2-Diethylaminoethoxyimino)-(1H)-Indene-(1H) Dihydrochloride], the IC50 in assay [1] stood at 160 µg/mL; in assay [2], 145 µg/mL. Further, in assay [3], the “inhibitory effect” value is on record as “still substantial”.

With `Cl.Cl.c1cncc(CON=C2CC(=NOCc3cccnc3)c3ccccc3-c3ccccc32)c1` [Example 14, 5,7-Bis(pyridin-3-ylmethoxyimino)-6,7-dihydro-(5H)-dibenzo[a,c]cycloheptene dihydrochloride], the figures for the IC50 in assay [1] and in assay [2] were 460 µg/mL and 600 µg/mL, respectively. Also, the “inhibitory effect” value in assay [3] is reported as “still substantial”.

Turning to `CCN(CC)CCON=C1CC(=NOCCN(CC)CC)c2ccccc2-c2ccccc21.O=C(O)C(O)C(O)C(=O)O.O=C(O)C(O)C(O)C(=O)O` [Example 17, 5,7-Bis(2-Diethylaminoethoxyimino)-6,7-Dihydro-(5H)-Dibenzo[a,c]Cycloheptene Ditartrate], the values for the IC50 in assay [1] and in assay [2] were 10 µg/mL and 16 µg/mL, respectively. Moreover, the “inhibitory effect” value in assay [3] was “still substantial”. In addition, the “inhibition … compared with aspirin” value in the assay on platelet aggregation is listed as “comparable or even superior to aspirin”.

As to `CCN(CC)CCON=C1CC(=NOCCN(CC)CC)c2ccccc2-c2ccccc21.O=C(O)/C=C\C(=O)O.O=C(O)/C=C\C(=O)O` [Example 16, 5,7-Bis(2-Diethylaminoethoxyimino)-6,7-Dihydro-(5H)-Dibenzo[a,c]Cycloheptene Dimaleate], the IC50 in assay [1] was found to be 16 µg/mL; in assay [2] it was 22 µg/mL. In assay [3], the “inhibitory effect” value is on record as “still substantial”. Also, the “inhibition … compared with aspirin” value in the assay on platelet aggregation was “comparable or even superior to aspirin”.

For the molecule `CCN(CC)CCON=C1CC(=NOCCN(CC)CC)c2ccccc2-c2ccccc21.Cl.Cl` [Example 15, 5,7-Bis(2-Diethylaminoethoxyimino)-6,7-Dihydro-(5H)-Dibenzo[a,c]Cycloheptene Dihydrochloride], the IC50 in assay [1] worked out at 10 µg/mL; in assay [2], 24 µg/mL. In addition, in assay [3], the “inhibitory effect” value is “still substantial”. Moreover, in the assay on platelet aggregation, the “inhibition … compared with aspirin” value is on record as “comparable or even superior to aspirin”.
